Measurements reported in PMC12676349, “Design of Glycosyltransferase Inhibitors: Targeting the Biosynthesis of Glycosaminoglycans by Phosphonate-Xyloside” (ACS Omega, 2025).

Key:
[1] = molecular target: T1, β-1,4-Galactosyltransferase 7 (β4GalT7) (Homo sapiens, UniProt Q9UBV7); experiment: STD NMR; type: binding
T1 construct: gene B4GALT7
T1 sequence (Q9UBV7 81-327): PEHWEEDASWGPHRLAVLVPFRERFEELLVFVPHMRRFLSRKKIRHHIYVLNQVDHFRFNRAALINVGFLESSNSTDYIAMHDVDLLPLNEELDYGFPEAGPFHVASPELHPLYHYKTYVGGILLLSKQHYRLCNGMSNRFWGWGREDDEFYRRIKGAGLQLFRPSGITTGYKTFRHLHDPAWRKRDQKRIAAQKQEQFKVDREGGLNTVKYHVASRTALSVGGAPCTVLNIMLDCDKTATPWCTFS

[2] = molecular target: T1, β-1,4-Galactosyltransferase 7 (β4GalT7); experiment: HPLC assay of GalXylNap formation from XylNap and UDP-Gal; type: biochemical
Text: HPLC assay of GalXylNap formation from XylNap and UDP-Gal on β-1,4-Galactosyltransferase 7 (β4GalT7) | display concentration-dependent inhibition of β4GalT7.

Row | IC50 [2] | SMILES | STD NMR [1]
1 |  | CC(=O)N[C@H]1[C@@H](OP(=O)(O)OP(=O)(O)OC[C@H]2O[C@@H](n3ccc(=O)[nH]c3=O)[C@H](O)[C@@H]2O)O[C@H](CO)[C@H](O)[C@@H]1O [UDP-GalNAc] | β4GalT7 tolerates an N-acetyl group at C2 of the sugar residue
2 | 188 µM | O=P(O)(O)CP(=O)(O)OCCO[C@@H]1COC(O)[C@H](O)[C@H]1O (mixture of isomers) [compound 4, 4-O-(2-(Methylene-diphosphoryl)-hydroxyethyl)-α/β-D-xylopyranose] | 
